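Assay format: 96-well plates, 48-hour exposure. GI50: concentration for 50% inhibition of growth. TGI: concentration producing complete growth inhibition.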
Assays:
Assay in all cases: inhibition of tumour cell growth, NCI panel, 48 h
UO-31 renal = tested on: UO-31 renal
SK-MEL-28 melanoma = tested on: SK-MEL-28 melanoma
U251 CNS = tested on: U251 CNS
SF-268 CNS = tested on: SF-268 CNS
CCRF-CEM leukemia = tested on: CCRF-CEM leukemia
RPMI-8226 leukemia = tested on: RPMI-8226 leukemia
SN12C renal = tested on: SN12C renal
SF-539 CNS = tested on: SF-539 CNS
MDA-MB-435 = tested on: MDA-MB-435
SW-620 colon = tested on: SW-620 colon

Row | SMILES | TGI (UO-31 renal) | TGI (SK-MEL-28 melanoma) | TGI (U251 CNS) | TGI (SF-268 CNS) | TGI (CCRF-CEM leukemia) | TGI (RPMI-8226 leukemia) | TGI (SN12C renal) | TGI (SF-539 CNS) | GI50 (UO-31 renal) | GI50 (MDA-MB-435) | TGI (MDA-MB-435) | GI50 (SK-MEL-28 melanoma) | GI50 (U251 CNS) | GI50 (SF-268 CNS) | GI50 (SW-620 colon) | TGI (SW-620 colon) | GI50 (CCRF-CEM leukemia) | GI50 (RPMI-8226 leukemia) | GI50 (SN12C renal) | GI50 (SF-539 CNS)
1 | Clc1ccccc1/C=C/c1cscn1 | > 100 µM | > 100 µM | > 100 µM | > 100 µM | > 100 µM | > 100 µM | > 100 µM | > 100 µM | – | – | – | – | – | – | – | – | – | – | – | –
2 | O=S1(=O)N(CCNc2nccc(-c3c(-c4cccc(O)c4)nc4sccn34)n2)CCN1Cc1ccccc1 | 39.3 µM | > 50 µM | > 50 µM | > 50 µM | 30.9 µM | 14.3 µM | > 50 µM | > 50 µM | 3.01 µM | 1.23 µM | > 50 µM | 0.417 µM | 8.21 µM | 15.3 µM | 7.87 µM | > 50 µM | 2.26 µM | 4.41 µM | 9.5 µM | 7.14 µM
3 | CCOC(=O)CN=C1NNS(=O)(=O)c2ccccc21 | > 100 µM | > 100 µM | > 100 µM | > 100 µM | > 100 µM | > 100 µM | > 100 µM | > 100 µM | – | – | > 100 µM | – | – | – | – | > 100 µM | – | – | – | –
4 | O=C1NN(C2=NNC3(C(=O)N2)c2ccccc2-c2ccccc23)C(c2ccccc2)=N/C1=C/c1ccc(O)cc1 | > 150 µg/mL | > 150 µg/mL | > 150 µg/mL | > 150 µg/mL | > 150 µg/mL | > 150 µg/mL | > 150 µg/mL | 87.5 µg/mL | 48.9 µg/mL | 69.9 µg/mL | > 150 µg/mL | 83 µg/mL | 104 µg/mL | 49.9 µg/mL | 82.5 µg/mL | > 150 µg/mL | 46.4 µg/mL | 70.6 µg/mL | 74.2 µg/mL | 32.7 µg/mL
5 | COc1cc(/C=C2\CCCC3=C2NC(C)=NC3c2cc(OC)c(OC)c(OC)c2)cc(OC)c1OC (stereo not given) | – | – | – | > 100 µM | > 100 µM | 4.67 µM | – | > 100 µM | – | – | – | – | – | 1.88 µM | 1.45 µM | > 100 µM | 0.838 µM | 0.536 µM | – | 1.55 µM
6 | NCCCCC(N)C(=O)NCCNc1ccc(NCCNC(=O)C(N)CCCCN)c2c1C(=O)c1ccccc1C2=O (stereo not given) | > 100 µM | > 100 µM | > 100 µM | > 100 µM | > 100 µM | > 100 µM | 99.1 µM | > 100 µM | – | – | > 100 µM | – | – | – | – | > 100 µM | – | – | – | –
7 | C=CC1(C)CCC2=C(CCC3C(C)(C(=O)OC)CCCC23C)C1=O (stereo not given) | 42.8 µM | – | 29 µM | 34.9 µM | 68 µM | 55.9 µM | 33 µM | – | – | – | – | – | – | – | – | 33.5 µM | – | – | – | –
8 | O=C(N/N=C\c1cccc(O)c1)c1ccncc1 | > 100 µM | > 100 µM | > 100 µM | > 100 µM | – | – | > 100 µM | – | – | – | > 100 µM | – | – | – | – | > 100 µM | – | – | – | –
9 | Cn1c(=O)c2[nH]c(CCCCC(=O)O)nc2n(C)c1=O | > 100 µM | > 100 µM | > 100 µM | > 100 µM | > 100 µM | – | > 100 µM | – | – | – | > 100 µM | – | – | – | – | > 100 µM | – | – | – | –
10 | Cc1cc(O)c(C(C)(C)C)cc1Sc1cc(C(C)(C)C)c(O)cc1C | 8.25 µM | 3.09 µM | 4.22 µM | 12.9 µM | 14.5 µM | 15.8 µM | > 100 µM | 9 µM | 2.07 µM | 1.98 µM | 4.14 µM | 1.63 µM | 1.99 µM | 3.3 µM | 3.65 µM | 13.7 µM | 2.95 µM | 2.97 µM | 2.91 µM | 2.77 µM
11 | CCOC(=O)C(O)(NC(=O)c1ccc(F)cc1)C(F)(F)F (stereo not given) | > 100 µM | > 100 µM | > 100 µM | > 100 µM | > 100 µM | > 100 µM | > 100 µM | > 100 µM | – | – | > 100 µM | – | – | – | – | > 100 µM | – | – | – | –

From PubChem BioAssay (NCI)
